The values below come from article PMC8526983 (The Journal of Biological Chemistry, 2021).

This experiment addresses T1, PfK5ΔL6-MD (Plasmodium falciparum, UniProt O77382, DEL175-269).
T1 construct: gene PF3D7_0317500
As to conditions: read-out: KATP; 1 μM GMPCPP-stabilised Sus scrofa microtubules; 50 mM Tris-HCl pH 8, KCl, 2 mM MgCl2, 2 mM DTT; 26 °C.

SMILES strings stand for the structures.

In the case of `Nc1ncnc2c1ncn2[C@@H]1O[C@H](COP(=O)(O)OP(=O)(O)OP(=O)(O)O)[C@@H](O)[C@H]1O` [ATP], the Km amounted to 9.5 µM.
